Laboratory results published in article PMC2921063 (Cancer Chemotherapy and Pharmacology, 2010).

Tests used:
[1] = test system: alemtuzumab; assay: Cognate antibody binding to peptide beads, alemtuzumab; details: 10 μm TentaGel beads; flow cytometry and fluorescent microscopy
[2] = Alemtuzumab bead-based detection in normal human serum; format: binding; details: alemtuzumab titrated into normal human serum; fluorescent secondary anti-human IgG; flow cytometry
[3] = test system: rituximab; assay: Cognate antibody binding to peptide beads, rituximab; details: 10 μm TentaGel beads; flow cytometry and fluorescent microscopy

## ACGSLSPSSCGGGS [pCp-1T]
[1]
  antibody binding to peptide beads: Specific cognate antibody binding was confirmed

## alemtuzumab: anti-CD52 monoclonal antibody (Genzyme)
[2]
  bead fluorescence vs alemtuzumab concentration: fluorescent signals correlated with the alemtuzumab concentration

## ACPTSNPSLCGGGS [pRTX-10T]
[3]
  antibody binding to peptide beads: Specific cognate antibody binding was confirmed
